Patent publication US20090137844A1, “Crystallization process” (Fermion Oy, priority 2005, published 2009)
Where a name gives a salt, the structure may show the parent alone.

Experiments:
Type in all cases: physicochemical
[1] = Crystal particle size by light microscope (visually observed); conditions: for Size of particle (light microscope), 90% of crystals below: procedure of Example 1
Procedure: Particle size distribution is analyzed visually using light microscope or by laser diffraction using the following method: In table 1 below there are the results of experiments using different addition temperatures. Procedure is the same as above.

[2] = Volumetric particle size distribution by laser diffraction (Coulter LS230); conditions: for Particle size distribution (laser diffraction) LDP 10 / Particle size distribution (laser diffraction) LDP 50 / Particle size distribution (laser diffraction) LDP 90: procedure of Example 1
Procedure: Particle size distribution is analyzed visually using light microscope or by laser diffraction using the following method: Saturated 2-Propanol: To 250 ml of 2-propanol is added approx 1 g of tamsulosin HCl powder and sonicated at room temperature about 30 min. The mixture is let stand overnight, hereafter it is filtered through […] membrane filter. Sample Preparation About 30 mg of tamsulosin HCl is weighed in a 25 ml decanter. 2-4 drops of saturated 2-propanol is added to the sample and stirred with a glass rod. After that 4 ml of saturated 2-propanol is added and the sample is kept in ultra sound for 30 seconds before measuring volumetric particle size distribution using Coulter LS230, Laser Diffraction Particle Size Analyzer.

[3] = Solubility in alcoholic solvents
[4] = Example 2: 15% HCl added at 40° C., cooled to 20° C.
[5] = Example 3: Example 2 repeated, HCl addition temperature 20° C.

CCOc1ccccc1OCCNC(C)Cc1ccc(OC)c(S(N)(=O)=O)c1 (centres unmarked) [tamsulosin hydrochloride, 5-[2-[[2-(2-ethoxyphenoxy)ethyl]amino]propyl]-2-methoxybenzene-sulfonamide]
Size of particle (light microscope), 90% of crystals below ([1]; HCl added at 0° C.): 90% < 3 μm
Size of particle (light microscope), 90% of crystals below ([1]; HCl added at 10° C.): 90% < 5 μm
Size of particle (light microscope), 90% of crystals below ([1]; HCl added at 20° C.): 90% < 10 μm
Size of particle (light microscope), 90% of crystals below ([1]; HCl added at 30° C.): 90% < 15 μm
Size of particle (light microscope), 90% of crystals below ([1]; HCl added at 40° C.): 90% < 30 μm
Size of particle (light microscope), 90% of crystals below ([1]; HCl added at 80° C.): 90% < 250 μm
Size below which 90% of the crystals are (light microscope) ([1]; hydrochloride added at e.g. 80° C.): below 250 micrometers
Size below which 90% of the crystals are (light microscope) ([1]; hydrochloride added below about 30° C.): below 15 micrometers
Crystal size distribution (laser diffraction) LDP 10 [2, 4]: 5 μm
Crystal size distribution (laser diffraction) LDP 50 [2, 4]: 20 μm
Crystal size distribution (laser diffraction) LDP 90 [2, 4]: 36 μm
Crystal size distribution (laser diffraction) LDP 10 [2, 5]: 3 μm
Crystal size distribution (laser diffraction) LDP 50 [2, 5]: 14 μm
Crystal size distribution (laser diffraction) LDP 90 [2, 5]: 29 μm
Particle size distribution (laser diffraction) LDP 10 ([2]; HCl added at 0° C.): LDP 10 = 1 μm
Particle size distribution (laser diffraction) LDP 50 ([2]; HCl added at 0° C.): LDP 50 = 3 μm
Particle size distribution (laser diffraction) LDP 90 ([2]; HCl added at 0° C.): LDP 90 = 12 μm
Particle size distribution (laser diffraction) LDP 10 ([2]; HCl added at 10° C.): LDP 10 = 1 μm
Particle size distribution (laser diffraction) LDP 50 ([2]; HCl added at 10° C.): LDP 50 = 5 μm
Particle size distribution (laser diffraction) LDP 90 ([2]; HCl added at 10° C.): LDP 90 = 10 μm
Particle size distribution (laser diffraction) LDP 10 ([2]; HCl added at 20° C.): LDP 10 = 2 μm
Particle size distribution (laser diffraction) LDP 50 ([2]; HCl added at 20° C.): LDP 50 = 7 μm
Particle size distribution (laser diffraction) LDP 90 ([2]; HCl added at 20° C.): LDP 90 = 17 μm
Particle size distribution (laser diffraction) LDP 10 ([2]; HCl added at 30° C.): LDP 10 = 4 μm
Particle size distribution (laser diffraction) LDP 50 ([2]; HCl added at 30° C.): LDP 50 = 15 μm
Particle size distribution (laser diffraction) LDP 90 ([2]; HCl added at 30° C.): LDP 90 = 29 μm
Particle size distribution (laser diffraction) LDP 10 ([2]; HCl added at 40° C.): LDP 10 = 9 μm
Particle size distribution (laser diffraction) LDP 50 ([2]; HCl added at 40° C.): LDP 50 = 29 μm
Particle size distribution (laser diffraction) LDP 90 ([2]; HCl added at 40° C.): LDP 90 = 55 μm
Size below which 90% of the crystals are (laser diffraction) ([2]; addition temperature about 20° C.): below 20 micrometers
Size below which 90% of the crystals are (laser diffraction) ([2]; addition temperature about 40° C.): below 60 micrometers

CCOc1ccccc1OCCNC(C)Cc1ccc(OC)c(S(N)(=O)=O)c1 (centres unmarked) [tamsulosin, 5-[2-[[2-(2-ethoxyphenoxy)ethyl]amino]propyl]-2-methoxybenzene-sulfonamide]
Solubility [3]: poorly soluble
